The record followed here is ChEMBL document CHEMBL1671643, “Relative strengths of the class 1 integron promoter hybrid 2 and the combinations of strong and hybrid 1 with an active p2 promoter” (2009).

Values after ≈ are worked out from the molar mass of the structure shown.

Format in all cases: functional
For test [1], the system named is Escherichia coli. Put plainly: Antimicrobial activity against Escherichia coli MC4100 harboring weak promoter and active promoter P2 in beta-lactamase GES-1 by Etest.
The subject of test [2] is Escherichia coli. The test is described as follows: Antimicrobial activity against Escherichia coli MC4100 harboring promoter hybrid 1 and active promoter P2 in beta-lactamase GES-1 by Etest.
Test [3] concerns Escherichia coli. Put plainly: Antimicrobial activity against Escherichia coli MC4100 harboring a weak promoter in beta-lactamase GES-1 by Etest.
Test [4] deals with Escherichia coli. Put plainly: Antimicrobial activity against Escherichia coli MC4100 harboring strong promoter and active promoter P2 in beta-lactamase GES-1 by Etest.
Test [5] concerns Escherichia coli. The test is described as follows: Antimicrobial activity against Escherichia coli MC4100 expressing promoterless beta-lactamase GES-1 by Etest.
The subject of test [6] is Escherichia coli. Put plainly: Antimicrobial activity against Escherichia coli MC4100 harboring promoter hybrid 1 in beta-lactamase GES-1 by Etest.
The test system of test [7] is Escherichia coli. The test is described as follows: Antimicrobial activity against Escherichia coli MC4100 harboring promoter hybrid 2 in beta-lactamase GES-1 by Etest.
Test [8] concerns Escherichia coli. Put plainly: Antimicrobial activity against Escherichia coli MC4100 harboring strong promoter in beta-lactamase GES-1 by Etest.

The term MIC denotes the lowest concentration found to suppress growth. Read a low MIC as greater potency. On to `CC1(C)S[C@@H]2[C@H](NC(=O)[C@H](N)c3ccc(O)cc3)C(=O)N2[C@H]1C(=O)O` [AMOXICILLIN], for which the MIC with Escherichia coli [1] was greater than 256 µg/mL; with Escherichia coli [2], greater than 256 µg/mL; in the test on Escherichia coli [3], greater than 256 µg/mL; in the test with Escherichia coli [4], greater than 256 µg/mL; in the test with Escherichia coli [5], 4 µg/mL (≈ 10.9 µM); with Escherichia coli [6], greater than 256 µg/mL. In addition, the MIC in the test on Escherichia coli [7] and with Escherichia coli [8] was greater than 256 µg/mL throughout.

On to `C[C@H]1[C@H](NC(=O)/C(=N\OC(C)(C)C(=O)O)c2csc(N)n2)C(=O)N1S(=O)(=O)O` [AZTREONAM], for which the MIC in the test on Escherichia coli [1] is 0.094 µg/mL (≈ 0.216 µM); in the test on Escherichia coli [2], 0.125 µg/mL (≈ 0.287 µM); against Escherichia coli [3] it was 0.047 µg/mL (≈ 0.108 µM); in the test on Escherichia coli [4], 0.25 µg/mL (≈ 0.574 µM); against Escherichia coli [6], 0.047 µg/mL (≈ 0.108 µM); with Escherichia coli [7], 0.094 µg/mL (≈ 0.216 µM). In the test with Escherichia coli [8], this compound had an MIC of 0.19 µg/mL (≈ 0.436 µM).

Consider `N[C@@H](C(=O)N[C@@H]1C(=O)N2C(C(=O)O)=C(Cl)CS[C@H]12)c1ccccc1` [CEFACLOR ANHYDROUS], for which the MIC came out at 24 µg/mL (≈ 65.3 µM) in the test with Escherichia coli [1]; 24 µg/mL (≈ 65.3 µM) in the test with Escherichia coli [2]; 6 µg/mL (≈ 16.3 µM) against Escherichia coli [3]; 256 µg/mL (≈ 696 µM) with Escherichia coli [4]; 1.5 µg/mL (≈ 4.08 µM) against Escherichia coli [5]; 8 µg/mL (≈ 21.8 µM) with Escherichia coli [6]. The figures for the MIC in the test with Escherichia coli [7] and with Escherichia coli [8] were 24 µg/mL (≈ 65.3 µM) and 256 µg/mL (≈ 696 µM), respectively.

As for `CO/N=C(\C(=O)N[C@@H]1C(=O)N2C(C(=O)[O-])=C(C[N+]3(C)CCCC3)CS[C@H]12)c1csc(N)n1` [CEFEPIME], the MIC with Escherichia coli [1] was 0.094 µg/mL (≈ 0.196 µM); against Escherichia coli [2], 0.125 µg/mL (≈ 0.26 µM); in the test with Escherichia coli [3] it was 0.032 µg/mL (≈ 0.0666 µM); against Escherichia coli [4], 0.19 µg/mL (≈ 0.395 µM); against Escherichia coli [5], 0.032 µg/mL (≈ 0.0666 µM); in the test on Escherichia coli [6] it was 0.064 µg/mL (≈ 0.133 µM). Further, the MIC was found to be 0.125 µg/mL (≈ 0.26 µM) against Escherichia coli [7] and 0.19 µg/mL (≈ 0.395 µM) against Escherichia coli [8].

For `CC(C)(O/N=C(\C(=O)N[C@@H]1C(=O)N2C(C(=O)[O-])=C(C[n+]3ccccc3)CS[C@H]12)c1csc(N)n1)C(=O)O` [CEFTAZIDIME], the MIC in the test on Escherichia coli [1] worked out at 4 µg/mL (≈ 7.32 µM); in the test with Escherichia coli [2] it was 6 µg/mL (≈ 11 µM); against Escherichia coli [3], 0.75 µg/mL (≈ 1.37 µM); in the test on Escherichia coli [4] it was 16 µg/mL (≈ 29.3 µM); in the test on Escherichia coli [5] it was 0.064 µg/mL (≈ 0.117 µM); against Escherichia coli [6] it was 1.5 µg/mL (≈ 2.74 µM). The MIC was 4 µg/mL (≈ 7.32 µM) against Escherichia coli [7] and 12 µg/mL (≈ 22 µM) in the test with Escherichia coli [8].

For `CO/N=C(\C(=O)N[C@@H]1C(=O)N2C(C(=O)O)=C(COC(N)=O)CS[C@H]12)c1ccco1` [CEFUROXIME], the minimum inhibitory concentration (MIC) is 96 µg/mL (≈ 226 µM) with Escherichia coli [1]; 256 µg/mL (≈ 603 µM) in the test with Escherichia coli [2]; 8 µg/mL (≈ 18.9 µM) in the test on Escherichia coli [3]; greater than 256 µg/mL in the test with Escherichia coli [4]; 2 µg/mL (≈ 4.71 µM) with Escherichia coli [5]; 32 µg/mL (≈ 75.4 µM) with Escherichia coli [6]. Also, the MIC against Escherichia coli [7] is 128 µg/mL (≈ 302 µM); in the test with Escherichia coli [8] it was greater than 256 µg/mL.

`CCN1CCN(C(=O)N[C@@H](C(=O)N[C@@H]2C(=O)N3[C@@H]2SC(C)(C)[C@@H]3C(=O)O)c2ccccc2)C(=O)C1=O` [PIPERACILLIN]: the MIC was determined as 12 µg/mL (≈ 23.2 µM) against Escherichia coli [1]; 16 µg/mL (≈ 30.9 µM) in the test with Escherichia coli [2]; 2 µg/mL (≈ 3.86 µM) with Escherichia coli [3]; 24 µg/mL (≈ 46.4 µM) in the test with Escherichia coli [4]; 1 µg/mL (≈ 1.93 µM) against Escherichia coli [5]; 4 µg/mL (≈ 7.73 µM) against Escherichia coli [6]. Moreover, the minimum inhibitory concentration (MIC) in the test with Escherichia coli [7] worked out at 12 µg/mL (≈ 23.2 µM); against Escherichia coli [8], 24 µg/mL (≈ 46.4 µM).
